{"source": "patent US20250262209A1", "about": "“TREATMENT OF GASTROINTESTINAL DISEASES” (Aclipse Two, Inc., priority 2022, published 2025)", "key": {"[1]": {"test_system": "monocytes from PBMC differentiated into M2 macrophage", "experiment": "M2 macrophage differentiation assay", "type": "cell-based, human", "from_the_text": "The purpose of this study was to evaluate the effects of lobeglitazone and other thiazolidinediones on M2 macrophage differentiation. The test articles and vehicles used in this study were lobeglitazone sulfate, pioglitazone HCl, and rosiglitazone.\nM2 macrophage differentiation assay timeline was as follows in Table 10.\n• (1) Isolate monocytes from PBMC using StemCell® monocyte isolation kit • (2) Count cell and adjust the cell density to 0.5×10^6 cells/ml with fresh complete differentiation medium. Add 5 μL M-CSF stock ([…]) to each 5 ml cell mixture. • (3) Seed isolated monocyte 100 μL per well on 96-well plate. • (4) Add test articles as the plate map using D300e (final concentration in μM). • (5) Differentiate the monocyte to macrophage in the presence of M-CSF to […] for 4 days. • (6) On day 4, add additional medium containing M-CSF. • (7) Add test compounds using D300e (final volume=[…]). • (8) On day 6, add IL-4 at 5× final concentration (IL-4 stock 0.1 mg/ml: dilute 10 μl stock into 10 ml medium for 100 ng/ml. Add 50 μl 100 ng/ml IL-4 to each well containing 200 μL medium to reach 20 ng/ml). • (9) On day 8, spin down the plates at 300×g for 5 min and collect the supernatant for cytokine quantification using MSD. • (10) M2 associated macrophage cytokines of interest are listed below in Table 12.\n• (11) Collect cells for flow analysis of viability/CD11c/CD163/CD206.\nFlow cytometry and surface marker CD163, CD11c, and CD206 were applied to characterize M2 repolarization. No stain and all stain with surface marker antibody to confirm the optimization of gating strategy."}, "[2]": {"test_system": "colon of DSS-induced IBD model mice", "experiment": "Colon histology (H&E score, PAS goblet cells) in the DSS-induced IBD model", "type": "in vivo", "conditions": "vs model", "description": "H&E staining: Colon sections were cut at 4 μm in thickness, dried in an oven for 1 hour and stained with H&E solution with our standard protocol. Briefly, the sections were stained with hematoxylin solution for 90 seconds. Then stain in eosin solution for 30 seconds. Then dehydrated and coverslipped for the subsequent image analysis. H&E stained images was scanned using LEICA Aperio® GT450. The severity of inflammatory cell infiltration and tissue damage were semi-quantitatively evaluated according to pathology score criteria in Table 7.\nPAS staining: Colon sections were cut at 4 μm in thickness, dried in an oven for 1 hour and stained with PAS kit (Gefan #M035) with our standard protocol. Briefly, the sections were stained with periodic acid working solution for 8 minutes. Then wash with distilled water for 5 minutes, three times. Stain in Schiff solution for 10 minutes. Transform to distilled water for 5 minutes, three times. Then dehydrated and coverslipped for the subsequent image analysis.\nThe total length of the colon was measured by a ruler and then was divided into 3 segments, 100 microns in the middle of each segment was taken out for goblet cell calculation. In each 100 microns of colon tissue, the number of goblet cells was calculated, then the average number of goblet cells from three parts was used for next analysis.\nIn vivo animal data were presented as mean±SEM. Statistical analysis was performed by one-way ANOVA followed by Dunnett's multiple comparison. […] The difference was considered significance when p<0.05."}}, "data": [{"smiles": "COc1ccc(Oc2cc(N(C)CCOc3ccc(CC4SC(=O)NC4=O)cc3)ncn2)cc1", "note": "(stereo not drawn) [lobeglitazone, 5-(4-(2-((6-(4-Methoxyphenoxy)pyrimidin-4-yl)(methyl)amino)ethoxy)benzyl)thiazolidine-2,4-dione]", "values": [{"measurement": "concentration at which M2 repolarization was promoted (M2 macrophage surface markers, flow cytometry)", "setting": "[1]; CD163, CD11c, CD206, donor 1 and 2", "result": "~0.025", "unit": "UM"}, {"measurement": "Eotaxin-2 expression", "setting": "[1]; cytokine analysis (MSD), donor 1", "result": "remarkable promotion"}, {"measurement": "MDC expression", "setting": "[1]; cytokine analysis (MSD), donor 3", "result": "remarkable promotion"}, {"measurement": "H&E total score (inflammation/tissue damage)", "setting": "[2]; 0.36 mg/kg PO QD 10 days", "result": "led to decrease"}, {"measurement": "number of goblet cells (PAS staining)", "setting": "[2]; 0.36 mg/kg PO QD 10 days", "result": "trended to increase"}, {"measurement": "H&E total score (inflammation/tissue damage)", "setting": "[2]; 1.20 mg/kg PO QD 10 days", "result": "led to decrease"}, {"measurement": "number of goblet cells (PAS staining)", "setting": "[2]; 1.20 mg/kg PO QD 10 days", "result": "trended to increase"}, {"measurement": "H&E total score (inflammation/tissue damage)", "setting": "[2]; 3.61 mg/kg PO QD 10 days", "result": "led to decrease"}, {"measurement": "number of goblet cells (PAS staining)", "setting": "[2]; 3.61 mg/kg PO QD 10 days", "result": "did not change"}]}]}
